Test results from the CheMixHub ionic liquid set.

Experiment: xn = mol fraction of the nth substance listed

CCCC[N+]1(C)CCCC1.O=S(=O)([N-]S(=O)(=O)C(F)(F)F)C(F)(F)F + CCOC(=O)OCC
100 kPa
Settings | electrical conductivity [S/m] | viscosity [mPa·s]
293.15 K, x1 = 0.1001 | 0.343 | 1.84
293.15 K, x1 = 0.2 | 0.526 | 3.84
293.15 K, x1 = 0.4998 | 0.42 | 18.14
293.15 K, x1 = 0.8934 | 0.23 | 72.5
303.15 K, x1 = 0.2 | 0.648 | 3.18
303.15 K, x1 = 0.25 | 0.731 | –
308.15 K, x1 = 0.4998 | 0.705 | 11.73
308.15 K, x1 = 0.8934 | 0.454 | 38.8
313.15 K, x1 = 0.1001 | 0.465 | 1.22
313.15 K, x1 = 0.25 | 0.9 | –
323.15 K, x1 = 0.1001 | 0.539 | 1
323.15 K, x1 = 0.8006 | 0.793 | 18.67

CCCC[n+]1ccn(C)c1.O=S(=O)([O-])C(F)(F)F + O
Settings | viscosity [mPa·s]
343.15 K, 101 kPa, x2 = 0.1939 | 10.55

CCCCCCCCn1cc[n+](C)c1.[Br-] + OC1OC[C@@H](O)[C@H](O)[C@H]1O + O
298.15 K, 101 kPa
Settings | viscosity [mPa·s]
x2 = 0, x1 = 0.001831 | 0.965
x2 = 0, x1 = 0.003598 | 1.025
x2 = 0, x1 = 0.005443 | 1.103
x2 = 0, x1 = 0.007132 | 1.172

CCCCCCCCCCCCCC[P+](CCCCCC)(CCCCCC)CCCCCC.O=S(=O)([N-]S(=O)(=O)C(F)(F)F)C(F)(F)F + CCC[N+]1(C)CCCC1.O=S(=O)([N-]S(=O)(=O)C(F)(F)F)C(F)(F)F
Settings | electrical conductivity [S/m]
293.15 K, 101 kPa, x1 = 1 | 0.00719

CCCCCCCCn1cc[n+](C)c1.F[B-](F)(F)F + CCCCCCCCn1cc[n+](C)c1.[Cl-]
101 kPa
Settings | electrical conductivity [S/m] | viscosity [mPa·s]
303 K, x2 = 0 | 0.0817 | –
303 K, x2 = 0.8 | 0.00551 | –
303.15 K, x2 = 0 | – | 258
303.15 K, x2 = 0.4 | – | 1093
308 K, x2 = 0.8 | 0.00853 | –
313 K, x2 = 0.6 | 0.0233 | –
318 K, x2 = 0 | 0.172 | –
318 K, x2 = 0.2 | 0.106 | –
318 K, x2 = 0.6 | 0.0327 | –
318.15 K, x2 = 0.8 | – | 1486
323 K, x2 = 0.6 | 0.0452 | –
328 K, x2 = 0.2 | 0.17 | –
333 K, x2 = 0 | 0.322 | –
333.15 K, x2 = 0 | – | 61

CCCC[n+]1ccn(C)c1.[Cl-] + NCCO
viscosity [mPa·s], 100 kPa
Settings | 293 K | 303 K | 303.1 K | 313.1 K | 333.2 K
x2 = 0.5 | – | – | 95.3 | 57 | 24.9
x2 = 0.677 | 62.3 | 37.1 | – | 24.1 | –

CCCCO + CC[n+]1ccn(CCOC)c1.N#C[S-]
100 kPa, x2 = 0
Settings | viscosity [mPa·s]
288.15 K | 3.36
293.15 K | 2.94
298.15 K | 2.58
303.15 K | 2.27
308.15 K | 2.01
313.15 K | 1.78
318.15 K | 1.585

CCCCCCCCn1cc[n+](C)c1.F[B-](F)(F)F + CCC(C)=O
298.15 K, 101 kPa
Settings | viscosity [mPa·s]
x2 = 0.101 | 188
x2 = 0.4505 | 24.78
x2 = 0.7023 | 5.04
x2 = 0.8033 | 2.29
x2 = 0.899 | 1.03

CCn1cc[nH+]c1.[Cl-] + OCC(O)CO
Settings | viscosity [mPa·s]
303.15 K, 100 kPa, x1 = 0.333 | 65.7

CCOP(=O)([O-])OCC.CC[N+]1(C)CCOCC1 + CCO
viscosity [mPa·s], 100 kPa
Settings | 293.15 K | 298.15 K | 303.15 K | 308.15 K | 313.15 K | 318.15 K | 323.15 K | 328.15 K | 333.15 K | 338.15 K
x1 = 0.0996 | 4.62 | 4.1 | 3.75 | 3.43 | 3.13 | 2.91 | 2.76 | 2.58 | 2.4 | 2.24
x1 = 0.2018 | 12.84 | 11.11 | 9.79 | 8.75 | 7.93 | 7.21 | 6.69 | 6.18 | 5.76 | 5.54
x1 = 0.3003 | 36.7 | 29.6 | 24.7 | 20.8 | 18.1 | 15.82 | 14.33 | 13.01 | 11.79 | 10.78
x1 = 0.4018 | 97.7 | 75.1 | 59 | 47.6 | 38.2 | 31.8 | 27.3 | 23.5 | 21.1 | 18.7
x1 = 0.4998 | 257 | 183 | 136.7 | 102.9 | 78.9 | 61.3 | 49.2 | 40.1 | 33.3 | 29
x1 = 0.6009 | 625 | 419 | 291 | 209 | 155 | 116.8 | 90 | 68.9 | 54.9 | 44.7
x1 = 0.7005 | 1447 | 938 | 631 | 424 | 298 | 213 | 158 | 120.4 | 91.7 | 72
x1 = 0.7996 | 3386 | 2221 | 1448 | 895 | 582 | 409 | 282 | 205 | 155 | 114.1
x1 = 0.901 | 6136 | 3670 | 2214 | 1372 | 909 | 604 | 418 | 297 | 215 | 160
x1 = 1 | 12100 | 6680 | 3786 | 2325 | 1466 | 942 | 634 | 443 | 312 | 226

F[P-](F)(F)(F)(F)F.[Li+] + CCCC[n+]1ccn(C)c1.N#C[N-]C#N
electrical conductivity [S/m], 101 kPa
Settings | x2 = 0.8823 | x2 = 0.8953 | x2 = 0.9172 | x2 = 0.9531 | x2 = 0.9799
288.15 K | – | 0.307 | 0.39 | 0.482 | 0.585
298.15 K | 0.488 | 0.522 | 0.633 | 0.771 | 0.909
333.15 K | 1.63 | 1.68 | 1.97 | 2.24 | 2.58

CCCCCCCCn1cc[n+](C)c1.O=[N+]([O-])[O-] + CCO
101 kPa
Settings | viscosity [mPa·s]
283.15 K, x2 = 0.554 | 48.2
288.15 K, x2 = 0.357 | 162
288.15 K, x2 = 0.868 | 4.46
293.15 K, x2 = 0.455 | 59.7
293.15 K, x2 = 0.767 | 8.59
298.15 K, x2 = 0.767 | 7.54
303.15 K, x2 = 0.554 | 21.79
303.15 K, x2 = 0.767 | 6.47
313.15 K, x2 = 0.767 | 4.99
318.15 K, x2 = 0.128 | 112
318.15 K, x2 = 0.357 | 39.8
318.15 K, x2 = 0.455 | 21.77
328.15 K, x2 = 0.128 | 53.6
328.15 K, x2 = 0.357 | 23.9
328.15 K, x2 = 0.554 | 9.29

O=Cc1ccco1 + CCCC[P+](C)(CCCC)CCCC.COS(=O)(=O)[O-]
100 kPa
Settings | viscosity [mPa·s]
293.15 K, x2 = 0.1 | 9
293.15 K, x2 = 0.191 | 41
293.15 K, x2 = 0.624 | 270
298.15 K, x2 = 0.062 | 2.33
298.15 K, x2 = 0.1 | 3.5
303.15 K, x2 = 0.191 | 6.7
303.15 K, x2 = 0.732 | 182
308.15 K, x2 = 0.142 | 4
308.15 K, x2 = 0.317 | 12.6
308.15 K, x2 = 0.624 | 58
313.15 K, x2 = 0 | 1.17
313.15 K, x2 = 0.1 | 2.6
318.15 K, x2 = 0.062 | 1.64
318.15 K, x2 = 0.142 | 3.5
318.15 K, x2 = 0.249 | 5.7
318.15 K, x2 = 0.499 | 20.5
323.15 K, x2 = 0.191 | 4
323.15 K, x2 = 0.249 | 4.7
